Data as given in patent publication US20150273088A1 (Board of Regents, The University of Texas System, priority 2014, published 2015).

Experiments:
[1] = tested on: HT1080 cells (endogenous IDH1 R132C); test: 2HG fluorimetric assay / high-throughput screen, secreted 2HG in media; format: cell-based, human; conditions: for Viability in high-throughput screen (Alamar Blue) / 2HG in high-throughput screen: HT1080, 48 hours; for 2HG in high-throughput screen: screen hits top left quadrant; for Secreted (extracellular) 2HG: HT1080 cells, 48 hours, fluorescent assay, normalized to viability
Protocol: 2HG fluorimetric assay. N-terminal 6×-His tagged PHGDH was expressed and purified from chemically competent BL-21 E. coli using Ni-NTA agarose (Qiagen) (Grant et al., 1999). Purified protein was then dialyzed in 40 mM KPO4 buffer at 4° C. overnight. Conditioned culture media (DMEM or aMEM) containing 2HG was neutralized with 60 mM HCL for 10 minutes followed by 60 mM Tris base. A 20 μL aliquot of neutralized conditioned media was then mixed with 90 μL of optimized assay reaction mix consisting of 5 μg purified PHGDH enzyme, 12.5 μM resazurin (Sigma-Aldrich), 0.125 U/ml diaphorase (Sigma-Aldrich), 1 mM NAD (Sigma-Aldrich), 40 mM Tris-HCl pH 8.8, and incubated for 90 minutes in a 96-well plate. Resorufin fluorescence was then quantified using a FLUOstar™ OPTIMA fluorescence plate reader (BMG Labtech) with excitation and emission peaks of 544 nm and 590 nm, respectively. Measurements were background subtracted (neutralized fresh media) and normalized either to total protein or viability as measured by Alamar Blue (Naik et al., 2009).
High-throughput screening. Screening was carried out using the Beckman Coulter (Fullerton, Calif.) Core Robotics system, including an FX liquid handler, controlled by the Sagian graphical method development tool (SAMI scheduling software). The Institute of Chemistry and Cell Biology (ICCB) Known Bioactives Library (Enzo Lifescience, BML-2840-0100) was diluted 1:200 in αMEM and 50 μL were added to pre-plated HT1080 cells. After 48 hours of incubation, media was removed and 2HG in the media was measured using the fluorimetric assay. Fresh 2HG fluorimetric assay reaction mix was prepared immediately before assaying each screen plate to limit background modulation. Cell viability was determined using Alamar Blue, as described previously (Naik et al., 2009).
To identify screen hits and account for differences in compound toxicity, 2HG fluorescence was first median-centered around DMSO treatment controls within each screen plate. 2HG fluorescence was then plotted against viability such that a correlation between the two measurements could be visualized. A linear fit and 95% predictive interval (P.I.) were then determined and plotted using GraphPad Prism (GraphPad Software).

HT1080 cells = test: GC-MS quantification of 2HG and upstream metabolites in HT1080 cells; format: cell-based, human; conditions: for Cellular 3-phosphoglycerate (3PG) level: HT1080, 300 μM Zaprinast or 10 μM BPTES
Protocol: (§1) GC-MS analysis. Metabolite extraction from cultured cells was performed as described previously by Figueroa et al. (2010). Briefly, cells were rinsed in ice cold PBS and rapidly quenched with 80% methanol spiked with 3-hydroxy-1,5-pentanedioic-2,2,3,4,4-d5 acid (CDN Isotopes, Quebec Canada) as an internal standard. Extracts were then incubated at −80° C. for 20 minutes, sonicated on ice, centrifuged at 14,000×g for 20 minutes at 4° C. to clear precipitate proteins, and supernatants transferred to vials for drying under N2. Derivatizing reagent (MSTFA (N-methyl-N-(trimethylsilyl)trifluoroacetamide):pyridine:acetonitrile 1:1:2) was added to the vials, which were then heated at 70° C. for 15 minutes.
(§2) Derivatized samples were analyzed on an Agilent 7890A gas chromatograph interfaced to an Agilent 5975C mass spectrometer. The GC column used for the study was a HP-5MS (30 m, 0.25 mm i.d., 0.25 μm film coating). A linear temperature gradient was used. The initial temperature of 80° C. was held for 2 minute and increased to 300° C. at 10° C./minute. The temperature was held at 300° C. for 2 minutes. The samples were run by electron ionization (EI) and the source temperature, electron energy, and emission current were 200° C., 70 eV, and 300 μA, respectively. The injector and transfer line temperatures were 250° C. 3-Hydroxy-1,5-pentanedioic-2,2,3,4,4-d5 acid was used as the internal standard in SIM mode for quantitation of 2-hydroxyglutaric acid. Quantitation was carried out by monitoring the ions at m/z 347 (glutamine and αKG), 348 (glutamate), 349 (2-hydroxyglutaric acid), and 354 (3-hydroxy-1,5-pentanedioic-2,2,3,4,4-d5).

[2] = tested on: D54 glioblastoma cells expressing IDH1 R132H; conditions: cited from earlier work
[3] = tested on: NHA cells ectopically expressing R132H IDH1; test: GC-MS quantification of 2HG and upstream metabolites in NHA cells expressing IDH1 R132H; format: cell-based, human; conditions: 48 hours
Protocol: as §1
as §2, with “The temperature was held at 300° C. for 2 minutes. The samples were run by electron ionization (EI) and the source temperature, electron energy, and emission current were 200° C., 70 eV, and 300 μA, respectively. The injector and transfer line temperatures were 250° C.” left out

[4] = tested on: NHA cells expressing IDH1 R132H; test: Soft agar colony assay; format: cell-based, human; conditions: IDH1 R132H astrocytes
From the text: Soft agar assay. A bottom layer of 0.6% soft agar with complete DMEM and 10% FBS was set in 6-well plates and allowed to solidify. Approximately 8,000 cells were then suspended in 0.4% soft agar and plated on top. Colonies were allowed to develop over 3-4 weeks and stained with crystal violet.

[5] = tested on: PDAC cells Panc1 and MiaPaca2; test: ROS quantification (DCFDA); format: cell-based; conditions: 48 hours
Protocol: ROS quantification. Reactive oxygen species levels in PDAC cells were quantified using 2,7-dichlorofluorescein diacetate (DCFDA). Following 48 hours of drug treatment in a 96-well plate, cells were washed with PBS, stained for 30 minutes at 37° C. with 20 μM DCFDA, and imaged using an InCell Analyzer 1000. A 10× objective was used to collect 16 fluorescent and bright field images per well with a 10% overlap to allow image stitching. Stained cells were then quantified using the GE InCell Investigator software package with Developer Toolbox.

[6] = tested on: PDAC cells Panc1 and MiaPaca2; test: Sensitivity to H2O2, viability by Alamar Blue; format: cell-based
From the text: (§3) Cell culture, transfection, and generation of stable cell lines. HT1080, HEK293T, Panc1, and MIA PaCa-2 cells were obtained from the American Type Culture Collection (ATCC). Normal human astrocytes (NHA) immortalized with E6/E7/hTERT were a kind gift from Dr. Russell O. Pieper (University of California, San Francisco). All cells tested negative for mycoplasma infection. HT1080 cells were authenticated by genotyping for IDH1 and were confirmed to harbor a heterozygous IDH1 R132C mutation by Sanger sequencing of genomic DNA products. The remaining cell lines were not further authenticated. HEK293T, NHA, PANC-1, and MIA Paca-2 cells were maintained with complete DMEM containing 10% fetal bovine serum (FBS) and 1% penicillin/streptomycin (P/S). HT1080 cells were maintained in αMEM containing 10% FBS and 1% P/S. Glutamine-free DMEM (Life Technologies) was supplemented with 10% FBS and 1% P/S and spiked with varying amounts of L-glutamine (Cellgro) for glutamine growth curves.

[7] = tested on: PDAC cells Panc1 and MiaPaca2; test: GC-MS of glutamine, glutamate and αKG in PDAC cells; format: cell-based; conditions: 300 μM, 48 hours
Protocol: as §1, §2

[8] = molecular target: T1, purified, full length, human GLS1 (Homo sapiens, UniProt O94925); test: Glutaminase assay (two-step, purified enzyme); format: biochemical
T1 construct: 6xHis (N); made in house; host or cells: E. coli BL-21
T1 sequence (O94925 55-669): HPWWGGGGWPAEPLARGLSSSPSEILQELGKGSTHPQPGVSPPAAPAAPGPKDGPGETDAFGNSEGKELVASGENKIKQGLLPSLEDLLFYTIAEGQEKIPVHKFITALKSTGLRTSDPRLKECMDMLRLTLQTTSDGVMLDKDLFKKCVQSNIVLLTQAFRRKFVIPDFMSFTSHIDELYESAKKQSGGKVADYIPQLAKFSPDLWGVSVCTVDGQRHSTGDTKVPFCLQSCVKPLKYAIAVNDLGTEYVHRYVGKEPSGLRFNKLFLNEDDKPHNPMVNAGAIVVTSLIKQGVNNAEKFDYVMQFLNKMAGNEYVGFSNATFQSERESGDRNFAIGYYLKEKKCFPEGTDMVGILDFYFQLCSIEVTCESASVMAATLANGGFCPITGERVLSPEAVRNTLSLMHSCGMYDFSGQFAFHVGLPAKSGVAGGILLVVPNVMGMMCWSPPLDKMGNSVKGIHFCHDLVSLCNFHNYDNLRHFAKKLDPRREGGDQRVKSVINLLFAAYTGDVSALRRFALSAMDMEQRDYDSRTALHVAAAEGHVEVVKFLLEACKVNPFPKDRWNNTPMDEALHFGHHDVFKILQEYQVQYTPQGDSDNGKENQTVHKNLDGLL
Protocol: Glutaminase assay. N-terminal 6×-His tagged GLS1 was expressed and purified from chemically competent BL-21 E. coli using Ni-NTA agarose beads (Qiagen). Purified protein was then dialyzed in a 50 mM Tris-phosphate buffer containing 1 mM dithiothreitol at 4° C. overnight. A previously described two-step assay was used to measure glutaminase activity (Kenny et al., 2003). […] […] […] For the second step of the assay, 20 μL of completed and quenched initial reaction were transferred to a new plate and 200 μL of secondary reaction mix containing 0.4 mg bovine liver glutamate dehydrogenase (Sigma-Aldrich), 0.09 M Tris-acetate (pH 9.4), 0.2 M hydrazine, 0.25 mM ADP, and 2 mM NAD was added. Samples were incubated for 40 minutes at room temperature and absorbance of NADH (340 nm) was measured using a microplate spectrophotometer.

[9] = tested on: NHA cells expressing IDH1 R132H or wild type IDH1; test: Histone lysine methylation by Western blot in immortalized NHA cells; format: cell-based, human
Protocol: Histone extraction and Western blot analysis. For extraction of total cellular protein, cells were lysed in RIPA buffer (150 mM NaCl, 50 mM Tris, 5 mM EDTA, 1% NP-40, 0.1% SDS, 0.5% sodium deoxycholate, pH 7.4), supplemented with protease inhibitor cocktail (Roche), sodium orthovanadate (1 mM), and PMSF (1 mM). Whole-cell lysates were normalized for protein content by BCA assay (Pierce). Histone extraction was performed using an EpiQuik™ Total Histone Extraction Kit (Epigentek) and extracted protein was quantified using a Bradford assay.
Proteins were resolved by SDS-PAGE, transferred to a PVDF membrane and probed with the following antibodies: IDH1 (Origene, TA500610), 6× His (Abcam, ab1187), H3K9Me2 (Cell Signaling, 4658p), H3K9Me3 (Abcam, ab8898), H3K27Me3 (Millipore, 07-449), H3K79Me2 (Cell Signaling, 9757p), total H3 (Cell Signaling, 4499p), and Actin. Secondary anti-mouse and anti-rabbit horseradish peroxidase-conjugated IgG antibodies were used for detection.

[10] = tested on: PDAC cells Panc1 and MiaPaca2; test: Growth of PDAC cells; format: cell-based
From the text: as §3

## COCc1cc(O)c(O)c(O)c1-c1c(COC)cc(O)c(O)c1O [HBDDE]
[1]
  Viability in high-throughput screen (Alamar Blue): little effect on viability
  2HG in high-throughput screen: reduced 2HG

## CCCc1nn(C)c2c(=O)[nH]c(-c3cc(S(=O)(=O)N4CCN(C)CC4)ccc3OCC)nc12 [Sildenafil]
[1]
  Secreted (extracellular) 2HG: no change

## O=C(Cc1ccccc1)Nc1nnc(CCSCCc2nnc(NC(=O)Cc3ccccc3)s2)s1 [BPTES]
HT1080 cells
  Cellular 3-phosphoglycerate (3PG) level: did not cause an elevation
[2]
  2HG levels in D54 cells: unaffected
  Growth of D54 cells expressing IDH1 R132H compared to wild type IDH1: preferentially limits growth

## Nc1nc2c(nc(Br)n2[C@@H]2O[C@@H]3COP(=O)(O)O[C@H]3[C@H]2O)c(=O)[nH]1 [8-bromo-cGMP]
[1]
  Secreted (extracellular) 2HG: did not cause a reduction

## CCCOc1ccccc1-c1nc2nn[nH]c2c(=O)[nH]1 [Zaprinast, 5-(2-propoxyphenyl)-1H-[1,2,3]triazolo[4,5-d]pyrimidin-7(4H)-one]
[3]
  Intracellular 2HG by GC-MS: modulated in a concentration-dependent manner
[3]; compared with HT1080
  Pattern of 2HG and upstream metabolite changes: the same pattern of metabolite level changes
HT1080 cells
  Cellular 3-phosphoglycerate (3PG) level: did not cause an elevation
HT1080 cells; HT1080, 48 hours
  Cellular alpha-ketoglutarate level: reduced
  Cellular glutamate level: reduced
  Intracellular 2HG by GC-MS: modulated in a concentration-dependent manner
  Intracellular glutamine level: unaffected
[4]
  Soft agar colony formation: reduced colony formation in IDH1 R132H astrocytes down to the level of vector and wild-type cells
[5]
  Reactive oxygen species (DCFDA-positive cells): increase in reactive oxygen species (ROS) in a concentration-dependent manner
[6]; Zaprinast with 5 mM glutamate
  Sensitivity to oxidative damage after adding back glutamate: nearly completely abolished the increased sensitivity to oxidative damage
[6]; cells pretreated with Zaprinast
  Susceptibility to hydrogen peroxide stress versus vehicle: significantly more susceptible
[7]
  Cellular glutamine: increase
  Cellular pool of glutamate: significant reductions
  Cellular pool of αKG: significant reductions
[8]; Lineweaver-Burk, with respect to glutamine
  Mode of GLS1 inhibition: noncompetitive inhibitor
[8]; purified human GLS1, read-out: IC50, enzymatic activity of GLS1
  IC50: ~200 µM
[8]; read-out: Ki, GLS1 kinetic analysis
  Ki: 220 µM
[9]; IDH1 WT expressing astrocytes, 300 μM
  Methylation levels of H3K9Me2 or H3K9Me3: did not produced such a marked reduction
[9]; astrocytes expressing R132H IDH1
  Histone methylation marks (H3K9Me2, H3K9Me3, H3K27Me3, H3K79Me2): marked reduction toward baseline methylation levels
[1]
  Viability in high-throughput screen (Alamar Blue): little effect on viability
  2HG in high-throughput screen: reduced 2HG
  Secreted (extracellular) 2HG: concentration-dependent reduction
[1]; in cells
  Concentration required to observe a significant reduction in 2HG: 100 to 300 µM
[10]; 100 μM and 300 μM Zaprinast
  Growth of PDAC cells: significantly reduced
[10]; Zaprinast with 5 mM glutamate
  Growth of PDAC cells with glutamate supplementation: restoration of growth

## Nc1nc2c(ncn2[C@@H]2O[C@@H]3COP(=O)(O)O[C@H]3[C@H]2O)c(=O)[nH]1 [cGMP]
[8]; control experiment, 10 mM glutamine
  Effect on GLS1 enzymatic activity: no direct effect
